In patent publication US10952433B2, “Solutions for enhancing the effectiveness of insecticides and fungicides on living plants and related methods” (priority 2015, dated 2021):

How the values were obtained:
[1] = test system: staining fungi (macerated fungal blend); assay: Staining fungi coverage in inoculated stem wound of red oak seedlings, greenhouse (Table 6)
Protocol: In performing the tests employing ten red oak seedlings per iteration with the materials being tested applied at approximately 12 milliliters per seeding applied with a low volume hand spray. […] Seven days after application, a sterile razor blade wound of approximately 2 millimeters by 10 millimeters was created on each seedling stem. Immediately after, the wounding 1 ml of macerated fungal blend suspended in distilled water was applied to each stem wound. Twenty-eight days after wounding, the wounds were evaluated for an average percentage of staining fungi present in each seedling stem wound. Opaque black straw covering was applied to each wound. The opaque black straws were applied within about one minute after wounding and inoculation with the fungi. […] The purpose for using such straws is to facilitate the creation of a dark environment on the wound as fungi tend to like dark damp places. This is employed to enhance the effectiveness of the test by accelerating the severity of the fungal growing conditions. Each stem wound was given two ml of distilled water 10, 17, 21 and 28 days after wounding by a low volume trigger spray. All solutions were included a propylene glycol based dye at a concentration of 100:1. The greenhouse conditions were maintained at 65° F. to 85° F. and the humidity range of 30 to 80% relative humidity. The test which employed the combination of thiabendazole, fludioxonil and azoxystrobin was obtained as a formulated pesticide product which was available under the trade designation “Sporgard”.
The final column is a numerical grade which represents the percent of staining fungi coverage in percentage in the stem wound of the red oak seedlings as measured on day 28.

[2] = test system: staining fungi of the ceratocystis variety; assay: Staining fungi in stem wound of white oak seedlings after trunk spray (Table 4); format: in vivo, ceratocystis (on white oak seedlings)
Protocol: Fourteen days after the stem wounding, wounds were examined for the presence of staining fungi. In creating these for solution were used the buffer and amine oxides were added to the dilute solution of fungicide.
Referring to TABLE 4 wherein a commonly used fungicide, Propiconazole was employed in tests in the amount of 50:200 PPM (parts per million) employed with and without buffered amine oxides systems 3 and 4 with some of the tests employing the 12 carbon length and others, the 1218 carbon mixture. In a preferred embodiment in 1218 on a weight basis, the 12 carbon length will be present in an amount of about 1.3 to 2.0 times the amount of 18 carbon length and in the preferred range about 1.5 to 1.8 times the amount of 18 carbon length. The tests were performed on white oak seedlings which were provided with a stem wound in which was introduced staining fungi which was of the ceratocystis variety.
The method of testing the materials was to spray the trunk of the seedling with the particular solution being tested and 7 days after such application, creating a wound of approximately 2 millimeters by 10 millimeters on each seedling stem. Fourteen days after the wounding, the wounds were examined for the presence of staining fungi.

[3] = fungicide + Amine Oxide 12 (No Buffer) 200:1, PPM: Thiabendazole/Fludioxonil/Azoxystrobin 160, Chlorothalonil 1235, Propiconazole 102, Mancozeb 1097, Vinclozolin 122, Mefenoxam 20
[4] = fungicide + Amine Oxide 1218 (No Buffer) 200:1, PPM: Thiabendazole/Fludioxonil/Azoxystrobin 160, Chlorothalonil 1235, Propiconazole 103, Mancozeb 1097, Vinclozolin 122, Mefenoxam 20
[5] = fungicide + Buffer System 3 200:1, no amine oxide, PPM: Thiabendazole/Fludioxonil/Azoxystrobin 160, Chlorothalonil 1235, Propiconazole 101, Mancozeb 1097, Vinclozolin 122, Mefenoxam 20
[6] = fungicide + buffered amine oxide, Buffer System 3, amine oxide 12, 200:1, PPM: Thiabendazole/Fludioxonil/Azoxystrobin 160, Chlorothalonil 1235, Propiconazole 105, Mancozeb 1097, Vinclozolin 122, Mefenoxam 20
[7] = fungicide + buffered amine oxide, Buffer System 3, amine oxide 1218, 200:1, PPM: Thiabendazole/Fludioxonil/Azoxystrobin 160, Chlorothalonil 1235, Propiconazole 107, Mancozeb 1097, Vinclozolin 122, Mefenoxam 20
[8] = fungicide alone, highest amount, PPM: Thiabendazole/Fludioxonil/Azoxystrobin 640, Chlorothalonil 4940, Propiconazole 400, Mancozeb 4388, Vinclozolin 488, Mefenoxam 80
[9] = fungicide alone, increased amount, PPM: Thiabendazole/Fludioxonil/Azoxystrobin 320, Chlorothalonil 2470, Propiconazole 200, Mancozeb 2194, Vinclozolin 244, Mefenoxam 40
[10] = fungicide alone, PPM: Thiabendazole/Fludioxonil/Azoxystrobin 160, Chlorothalonil 1235, Propiconazole 100, Mancozeb 1097, Vinclozolin 122, Mefenoxam 20

Row | Molecule | Percent of Staining Fungi Coverage Average (%) in Stem Wound of Red Oak Seedlings (Day 28) [1, 3] [%] | Percent of Staining Fungi Coverage Average (%) in Stem Wound of Red Oak Seedlings (Day 28) [1, 4] [%] | Percent of Staining Fungi Coverage Average (%) in Stem Wound of Red Oak Seedlings (Day 28) [1, 5] [%] | Percent of Staining Fungi Coverage Average (%) in Stem Wound of Red Oak Seedlings (Day 28) [1, 6] [%] | Percent of Staining Fungi Coverage Average (%) in Stem Wound of Red Oak Seedlings (Day 28) [1, 7] [%] | Percent of Staining Fungi Coverage Average (%) in Stem Wound of Red Oak Seedlings (Day 28) [1, 8] [%] | Percent of Staining Fungi Coverage Average (%) in Stem Wound of Red Oak Seedlings (Day 28) [1, 9] [%] | Percent of Staining Fungi Coverage Average (%) in Stem Wound of Red Oak Seedlings (Day 28) [1, 10] [%] | Percent of Seedlings with Staining Fungi in Stem Wound of White Oak ([2]; Propiconazole 50 PPM + buffered amine oxide system 3, amine oxide 12, 200:1) [%] | Percent of Seedlings with Staining Fungi in Stem Wound of White Oak ([2]; Propiconazole 50 PPM + buffered amine oxide system 3, amine oxide 12, 400:1) [%] | Percent of Seedlings with Staining Fungi in Stem Wound of White Oak ([2]; Propiconazole 50 PPM + buffered amine oxide system 3, amine oxide 1218, 200:1) [%] | Percent of Seedlings with Staining Fungi in Stem Wound of White Oak ([2]; Propiconazole 50 PPM + buffered amine oxide system 3, amine oxide 1218, 400:1) [%] | Percent of Seedlings with Staining Fungi in Stem Wound of White Oak ([2]; Propiconazole 50 PPM + buffered amine oxide system 4, amine oxide 12, 200:1) [%] | Percent of Seedlings with Staining Fungi in Stem Wound of White Oak ([2]; Propiconazole 50 PPM + buffered amine oxide system 4, amine oxide 12, 400:1) [%] | Percent of Seedlings with Staining Fungi in Stem Wound of White Oak ([2]; Propiconazole 50 PPM + buffered amine oxide system 4, amine oxide 1218, 200:1) [%] | Percent of Seedlings with Staining Fungi in Stem Wound of White Oak ([2]; Propiconazole 50 PPM + buffered amine oxide system 4, amine oxide 1218, 400:1) [%] | Percent of Seedlings with Staining Fungi in Stem Wound of White Oak ([2]; Propiconazole 50 PPM alone, 14 days after wounding) [%] | Percent of Seedlings with Staining Fungi in Stem Wound of White Oak ([2]; Propiconazole 100 PPM alone, 14 days after wounding) [%] | Percent of Seedlings with Staining Fungi in Stem Wound of White Oak ([2]; Propiconazole 200 PPM alone, 14 days after wounding) [%]
1 | COCC(=O)N(c1c(C)cccc1C)[C@H](C)C(=O)OC [Mefenoxam] | 38 | 25 | 52 | 16 | 21 | 23 | 42 | 64 | – | – | – | – | – | – | – | – | – | – | –
2 | N#Cc1c(Cl)c(Cl)c(Cl)c(C#N)c1Cl [Chlorothalonil] | 64 | 55 | 72 | 27 | 33 | 37 | 49 | 91 | – | – | – | – | – | – | – | – | – | – | –
3 | C=CC1(C)OC(=O)N(c2cc(Cl)cc(Cl)c2)C1=O (stereo not drawn) [Vinclozolin] | 32 | 16 | 49 | 17 | 38 | 15 | 21 | 43 | – | – | – | – | – | – | – | – | – | – | –
4 | Mancozeb | 58 | 30 | 67 | 24 | 30 | 22 | 35 | 74 | – | – | – | – | – | – | – | – | – | – | –
5 | CCCC1COC(Cn2cncn2)(c2ccc(Cl)cc2Cl)O1 (stereo not drawn) [Propiconazole] | 43 | 55 | 74 | 20 | 44 | 33 | 81 | 85 | 0 | 20 | 0 | 0 | 0 | 20 | 0 | 0 | 100 | 80 | 20
